Values of other authors, collected in publication PMC4022290 (Nuclear medicine and biology, 2013).

Tested on: tumors

D-Phe-Gln-Trp-Ala-Val-Gly-His-Sta-Leu-NH2 [RM2]
uptake and retention in tumors vs agonist GRPr-targeting ligands: improved uptake and retention in tumors as compared to agonist GRPr-targeting ligands
